# Source: ChEMBL document CHEMBL1201862, “PubChem BioAssay data set” (2004)
# Calls of active or inactive are those of the source. Peptide text beside a SMILES is read from it. * marks the point of attachment. Cbz = O=C(OCc1ccccc1)*
# Columns and labels:
# BJ [1] = experiment: cytotoxicity toward BJ-TERT fibroblasts, dose response, cell-based, RAS-independent, luminescence (AID 1933); assay type: functional; details: Homo sapiens
# BJ [2] = experiment: cells; assay type: functional, cell-based; details: Homo sapiens
# [3] = molecular target: Luciferin 4-monooxygenase (Photinus pyralis, UniProt P08659); experiment: firefly luciferase enzyme inhibitors, dose response, biochemical, luminescence (AID 1891)
# [4] = Luminescence Cell-Based Dose Confirmation HTS to Identify Inhibitors of Platelet Dense Granule Release. [Related pubchem assays: 1663 (Primary HTS), 1678 (Summary of Project)]; assay type: functional
# BJ [5] = experiment: cytotoxicity toward BJ-TERT-LT-ST fibroblasts, dose response, cell-based, RAS-independent, luminescence (AID 1935); assay type: functional; details: Homo sapiens;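 note: BJ fibroblasts immortalized with TERT plus LT and ST oncogenes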
# [6] = cytotoxicity toward DRD oncogenic fibroblasts, dose response, cell-based, non-viral oncogenic, luminescence (AID 1934); assay type: functional; details: Homo sapiens
# [7] = inhibition of ADP-Glo detection reagents, dose response, artefact control for CDK5 inhibitor project, biochemical, luminescence, cherry-picked samples, set 2 (AID 504546); assay type: functional
# [8] = molecular target: Cyclin-dependent kinase 5/CDK5 activator 1 (Homo sapiens, UniProt Q00535); experiment: CDK5/p35 kinase inhibitors, dose response, biochemical, cherry-picked samples, set 2 (AID 504545)
# BJ [9] = experiment: cytotoxicity toward Ras-transformed BJeLR fibroblasts, dose response, cell-based, alamar blue fluorescence, cherrypicked samples (AID 2631); assay type: functional; details: Homo sapiens;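 note: confirmatory dose-response assay in RAS-dependent BJ fibroblasts engineered with TERT, LT and ST, with cytotoxicity read by fluorescence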
# [10] = molecular target: Dual specificity tyrosine-phosphorylation-regulated kinase 1A (Rattus norvegicus, UniProt Q63470); assay type: biochemical, Homo sapiens
# Melanocortin receptor 4 = Melanocortin receptor 4 (Homo sapiens, UniProt P32245); experiment: MC4R antagonist potency on cAMP, dose response, cell-based, TR-FRET, biased antagonists (AID 602298); assay type: functional;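 note: antagonist potency against agonist-stimulated cAMP production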
# [11] = nonselective inhibitors of cellular cAMP signaling, dose response, counter-screen for MC4R biased antagonist project, cell-based, TR-FRET cAMP detection (AID 602305); assay type: functional;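 note: U2OS cells stimulated with forskolin near its EC80 as the cAMP inducer; potency is for inhibition of forskolin-stimulated cAMP signaling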
# [12] = molecular target: DNA dC->dU-editing enzyme APOBEC-3G (Homo sapiens, UniProt Q9HC16); experiment: APOBEC3G deaminase inhibitors, SAR follow-up, biochemical, fluorescence, single-stranded DNA substrate (AID 602136); assay type: functional; details: read-out: IC50_Mean
# [13] = molecular target: DNA dC->dU-editing enzyme APOBEC-3A (Homo sapiens, UniProt P31941); experiment: SAR analysis of small molecule inhibitors of APOBEC3A DNA Deaminase via a fluorescence-based single-stranded DNA deaminase assay.; assay type: functional; details: read-out: IC50_Mean
# Interleukin-8 [14] = molecular target: T1, Interleukin-8 (Homo sapiens, UniProt P10145); experiment: Dose Response confirmation of uHTS small molecule hits for cystic fibrosis induced NFkb Inhibitors in a TNFa-induced IL8 counterscreen.; assay type: functional; details: read-out: IC50_Mean
# Interleukin-8 [15] = molecular target: T1, Interleukin-8; experiment: Dose Response confirmation of uHTS small molecule hits for cystic fibrosis induced NFkb Inhibitors in a PAF-induced IL8 counterscreen.; assay type: functional; details: read-out: IC50_Mean
# [16] = AlphaScreen signal interference compounds, dose response, artefact control for ARNT-TACC3 interaction inhibitor project, biochemical, luminescence, cherry-pick (AID 651705); assay type: functional;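 note: AlphaScreen bead proximity signal that flags compounds interfering with the detection technology; potency reflects signal decrease which marks the compound as an assay artifact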
# Fatty acid synthase [17] = molecular target: T2, Fatty acid synthase (Homo sapiens, UniProt P49327); experiment: FAS thioesterase domain inhibitors, dose response, biochemical, endpoint fluorescence intensity, uHTS hits (AID 624327); assay type: functional;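 note: fluorescence from hydrolysis of an O-methyl fluorescein acyl ester substrate by the enzyme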
# Fatty acid synthase [18] = molecular target: T2, Fatty acid synthase; experiment: FAS thioesterase domain inhibitors, dose response, biochemical, kinetic fluorescence intensity (AID 624326); assay type: functional;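 note: rate of fluorescence rise from hydrolysis of a fluorogenic O-methyl fluorescein ester substrate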
# [19] = inhibitors of intracellular T. cruzi replication, confirmation, NIH3T3 host cells, beta-gal luminescence (AID 2044); assay type: functional, cell-based;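 note: intracellular parasites grown in NIH/3T3 mouse fibroblasts as host cells; luminescent beta-galactosidase reporter signal from transgenic T. cruzi replicating inside host cells; inhibitors lower the luminescence signal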
# [20] = cytotoxicity toward NIH3T3 fibroblasts, dose response, counter-screen, cell-based, ATP luminescence, mouse fibroblasts (AID 2010); assay type: functional;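 note: cells exposed to compound for about 90 hours before reading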
# [21] = molecular target: Heat shock protein HSP 90-alpha (Homo sapiens, UniProt P07900); assay type: functional, organism-based
# [22] = molecular target: Aryl hydrocarbon receptor (Homo sapiens, UniProt P35869); details: Potency;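 note: confirmatory quantitative high-throughput screen measuring activation of the AhR signaling pathway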
# [23] = Luminescence Cell-Based Dose Confirmation HTS to Identify Activators of 5'UTR Stem-Loop Driven Alpha-Synuclein mRNA Translation in H4 Neuroglioblastoma Cells. [Related pubchem assays: 1829 (Project Summary), 1814 (Primary HTS)]; assay type: functional
# [24] = Luminescence Cell-Based Dose Response HTS to Identify Activators of Luciferase Translation or Activity in H4 […] Cells. [Related pubchem assays: 1829 (Project Summary), 1814 (Primary HTS)]; assay type: functional
# H4 = experiment: Luminescence Cell-Based Dose Response HTS to Identify Activators of 5'UTR Stem-Loop Driven Prion Protein mRNA Translation in H4 Neuroglioblastoma Cells. [Related pubchem assays: 1829 (Project Summary), 1814 (Primary HTS)]; assay type: functional; details: Homo sapiens
# [25] = molecular target: 26S proteasome non-ATPase regulatory subunit 14 (Homo sapiens, UniProt O00487); experiment: inhibition of proteasome subunit RPN11 – biochemical, fluorescence polarization, uHTS hits, confirmation (AID 602368); assay type: functional
# [26] = molecular target: 72 kDa type IV collagenase (Homo sapiens, UniProt P08253); experiment: Dose Response validation of uHTS RPN11 inhibitor hits using a MMP-2 Fluorescence assay.; assay type: functional
# Prothrombin = Prothrombin (Bos taurus, UniProt P00735); experiment: thrombin inhibition, dose response, biochemical, fluorescence polarization, uHTS hits (AID 602369); assay type: functional
# [27] = molecular target: T3, Rac GTPase-activating protein 1 (Homo sapiens, UniProt Q9H0H5); experiment: MgcRacGAP GTPase-activating activity inhibitors, confirmation, biochemical, ADP Hunter fluorescence, primary and confirmatory (AID 624330); assay type: functional
# T3 sequence (Q9H0H5 whole entry): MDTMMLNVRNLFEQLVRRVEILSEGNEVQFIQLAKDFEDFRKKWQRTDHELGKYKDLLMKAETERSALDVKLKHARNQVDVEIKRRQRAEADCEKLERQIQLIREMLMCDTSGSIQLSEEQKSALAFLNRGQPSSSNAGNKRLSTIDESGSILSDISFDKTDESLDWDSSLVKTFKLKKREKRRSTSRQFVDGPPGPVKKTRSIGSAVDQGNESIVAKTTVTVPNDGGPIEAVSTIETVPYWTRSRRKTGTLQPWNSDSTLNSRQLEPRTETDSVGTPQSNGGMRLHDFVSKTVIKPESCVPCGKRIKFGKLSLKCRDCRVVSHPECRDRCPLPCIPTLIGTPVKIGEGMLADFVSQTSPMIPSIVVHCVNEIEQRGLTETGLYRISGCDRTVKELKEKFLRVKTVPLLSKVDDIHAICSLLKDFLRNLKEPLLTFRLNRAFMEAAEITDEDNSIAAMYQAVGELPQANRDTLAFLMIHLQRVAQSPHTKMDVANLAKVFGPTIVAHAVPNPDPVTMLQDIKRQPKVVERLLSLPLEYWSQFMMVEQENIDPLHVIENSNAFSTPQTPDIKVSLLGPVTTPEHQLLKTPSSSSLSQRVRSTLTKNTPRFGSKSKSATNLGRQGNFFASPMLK
# [28] = A Cell Based Secondary Assay to Explore Cytotoxicity in THP-1 Cells of Compounds that Modulate Mycobacterium tuberculosis in Media Containing Glycerol versus Media without Glycerol (2).; assay type: functional
# [29] = Vero cell cytotoxicity, cytotoxicity control for M. tuberculosis inhibitor project, purified and synthesized samples, set 3 (AID 504684); assay type: functional
# [30] = HeLa cell cytotoxicity, dose response, cytotoxicity control for MgcRacGAP inhibitor project (AID 624300); assay type: functional
# [31] = NIH-3T3 fibroblast cytotoxicity, dose response, cytotoxicity control, cell-based, fluorescence, Alamar Blue, secondary assay (AID 2327); assay type: functional;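 note: NIH-3T3 mouse fibroblasts cultured with fluconazole at 8 µg/mL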
# [32] = C. albicans growth with fluconazole, confirmation, fluorescence, retest (AID 2467); assay type: functional, cell-based
# [33] = molecular target: T4, Serine/threonine-protein phosphatase (Candida dubliniensis (strain CD36 / CBS 7987 / NCPF 3949 / NRRLY-17841) (Yeast), UniProt B9W6M3); experiment: calcineurin pathway inhibitors in yeast reporter, dose response, S. cerevisiae, CDRE-lacZ, luminescence, secondary (AID 2388); assay type: functional, cell-based;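 note: yeast reporter cells carrying a calcineurin-responsive lacZ construct stimulated with calcium chloride; luminescent beta-galactosidase reporter signal in whole cells rather than isolated phosphatase activity; potency for inhibition where a drop in reporter signal means calcineurin blockade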
# T4 sequence (B9W6M3 whole entry): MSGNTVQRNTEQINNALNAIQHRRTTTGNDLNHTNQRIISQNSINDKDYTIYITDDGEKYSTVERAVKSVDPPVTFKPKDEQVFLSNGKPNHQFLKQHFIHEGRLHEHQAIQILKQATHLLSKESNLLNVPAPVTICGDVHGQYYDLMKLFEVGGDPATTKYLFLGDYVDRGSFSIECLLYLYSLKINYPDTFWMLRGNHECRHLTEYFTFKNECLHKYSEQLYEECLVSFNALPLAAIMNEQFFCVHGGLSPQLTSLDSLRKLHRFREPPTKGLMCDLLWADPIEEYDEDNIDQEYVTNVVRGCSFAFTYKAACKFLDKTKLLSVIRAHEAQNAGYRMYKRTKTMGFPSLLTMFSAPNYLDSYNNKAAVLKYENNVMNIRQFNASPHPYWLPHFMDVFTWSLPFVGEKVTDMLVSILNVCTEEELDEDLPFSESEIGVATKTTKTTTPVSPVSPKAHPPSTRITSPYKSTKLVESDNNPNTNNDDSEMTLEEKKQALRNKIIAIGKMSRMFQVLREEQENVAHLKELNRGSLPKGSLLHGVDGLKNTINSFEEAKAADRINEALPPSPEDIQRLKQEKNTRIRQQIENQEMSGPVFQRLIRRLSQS
# [34] = molecular target: Benomyl/methotrexate resistance protein (Candida albicans, UniProt P28873); experiment: CaMdr1 efflux pump inhibitor potency, dose response, singleplex, Cherry Pick1 hits (AID 588608); assay type: functional
# [35] = molecular target: ATP-dependent molecular chaperone HSP82 (Candida albicans (strain WO-1) (Yeast), UniProt C4YTQ8); experiment: loss of DOC-induced GRE-beta-galactosidase reporter signal, dose response, Hsp90 inhibitor project, S. cerevisiae, luminescence (AID 2400); assay type: functional, cell-based;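 note: beta-galactosidase luminescence from glucocorticoid response element reporter as proxy for Hsp90 function; inhibitor potency where signal loss means Hsp90 inhibition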
# T1 sequence (P10145 whole entry): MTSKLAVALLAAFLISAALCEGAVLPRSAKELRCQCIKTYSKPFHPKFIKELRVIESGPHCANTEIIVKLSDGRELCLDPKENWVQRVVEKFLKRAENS
# Chain of Melanocortin receptor 4 (P32245 whole entry): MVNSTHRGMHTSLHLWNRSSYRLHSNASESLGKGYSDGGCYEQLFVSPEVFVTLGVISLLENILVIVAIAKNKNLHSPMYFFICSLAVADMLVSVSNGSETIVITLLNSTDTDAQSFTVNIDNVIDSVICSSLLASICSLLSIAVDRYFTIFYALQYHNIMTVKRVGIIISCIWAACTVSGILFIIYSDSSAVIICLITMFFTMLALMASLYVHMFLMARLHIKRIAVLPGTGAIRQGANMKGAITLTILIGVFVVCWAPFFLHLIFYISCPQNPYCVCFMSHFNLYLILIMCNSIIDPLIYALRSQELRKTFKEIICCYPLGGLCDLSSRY
# Chain of DNA dC->dU-editing enzyme APOBEC-3G (Q9HC16 whole entry): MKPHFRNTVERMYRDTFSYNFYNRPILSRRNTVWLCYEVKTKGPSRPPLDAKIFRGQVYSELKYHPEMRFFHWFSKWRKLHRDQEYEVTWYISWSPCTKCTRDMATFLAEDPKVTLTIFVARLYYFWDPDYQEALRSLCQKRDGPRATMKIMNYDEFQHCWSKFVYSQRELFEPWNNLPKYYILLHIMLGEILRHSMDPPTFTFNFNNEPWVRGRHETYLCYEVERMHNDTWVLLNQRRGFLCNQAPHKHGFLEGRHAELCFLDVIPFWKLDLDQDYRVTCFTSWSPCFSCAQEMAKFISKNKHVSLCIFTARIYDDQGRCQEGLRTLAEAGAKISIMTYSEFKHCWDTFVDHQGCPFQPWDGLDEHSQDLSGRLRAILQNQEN
# Chain of 72 kDa type IV collagenase (P08253 whole entry): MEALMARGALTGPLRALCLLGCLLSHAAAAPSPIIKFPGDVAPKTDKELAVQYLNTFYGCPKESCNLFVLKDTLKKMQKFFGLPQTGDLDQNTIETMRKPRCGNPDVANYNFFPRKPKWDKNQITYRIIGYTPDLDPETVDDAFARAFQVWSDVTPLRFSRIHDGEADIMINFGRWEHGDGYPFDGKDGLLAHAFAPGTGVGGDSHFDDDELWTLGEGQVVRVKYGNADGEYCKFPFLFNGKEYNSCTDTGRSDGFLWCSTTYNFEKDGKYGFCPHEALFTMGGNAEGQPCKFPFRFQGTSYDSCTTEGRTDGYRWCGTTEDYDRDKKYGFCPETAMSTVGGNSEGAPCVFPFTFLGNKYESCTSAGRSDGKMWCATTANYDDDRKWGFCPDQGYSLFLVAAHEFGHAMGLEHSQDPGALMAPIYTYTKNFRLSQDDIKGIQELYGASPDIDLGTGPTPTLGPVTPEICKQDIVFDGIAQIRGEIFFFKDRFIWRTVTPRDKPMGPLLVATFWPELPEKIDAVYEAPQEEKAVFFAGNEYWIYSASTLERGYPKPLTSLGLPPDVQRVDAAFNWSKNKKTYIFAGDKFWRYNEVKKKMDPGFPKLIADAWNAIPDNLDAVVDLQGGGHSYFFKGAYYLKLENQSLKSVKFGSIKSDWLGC
# Chain of 26S proteasome non-ATPase regulatory subunit 14 (O00487 whole entry): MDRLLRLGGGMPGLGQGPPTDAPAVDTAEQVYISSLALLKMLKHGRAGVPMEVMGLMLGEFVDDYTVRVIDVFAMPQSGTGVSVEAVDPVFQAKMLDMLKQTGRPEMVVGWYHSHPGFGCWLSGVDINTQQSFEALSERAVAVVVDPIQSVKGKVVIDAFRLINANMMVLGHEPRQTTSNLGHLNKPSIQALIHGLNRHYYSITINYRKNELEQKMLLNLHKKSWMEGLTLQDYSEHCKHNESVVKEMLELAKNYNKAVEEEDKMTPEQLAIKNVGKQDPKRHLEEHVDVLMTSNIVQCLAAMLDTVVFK
# T2 sequence (P49327 whole entry, the tested form may be a part): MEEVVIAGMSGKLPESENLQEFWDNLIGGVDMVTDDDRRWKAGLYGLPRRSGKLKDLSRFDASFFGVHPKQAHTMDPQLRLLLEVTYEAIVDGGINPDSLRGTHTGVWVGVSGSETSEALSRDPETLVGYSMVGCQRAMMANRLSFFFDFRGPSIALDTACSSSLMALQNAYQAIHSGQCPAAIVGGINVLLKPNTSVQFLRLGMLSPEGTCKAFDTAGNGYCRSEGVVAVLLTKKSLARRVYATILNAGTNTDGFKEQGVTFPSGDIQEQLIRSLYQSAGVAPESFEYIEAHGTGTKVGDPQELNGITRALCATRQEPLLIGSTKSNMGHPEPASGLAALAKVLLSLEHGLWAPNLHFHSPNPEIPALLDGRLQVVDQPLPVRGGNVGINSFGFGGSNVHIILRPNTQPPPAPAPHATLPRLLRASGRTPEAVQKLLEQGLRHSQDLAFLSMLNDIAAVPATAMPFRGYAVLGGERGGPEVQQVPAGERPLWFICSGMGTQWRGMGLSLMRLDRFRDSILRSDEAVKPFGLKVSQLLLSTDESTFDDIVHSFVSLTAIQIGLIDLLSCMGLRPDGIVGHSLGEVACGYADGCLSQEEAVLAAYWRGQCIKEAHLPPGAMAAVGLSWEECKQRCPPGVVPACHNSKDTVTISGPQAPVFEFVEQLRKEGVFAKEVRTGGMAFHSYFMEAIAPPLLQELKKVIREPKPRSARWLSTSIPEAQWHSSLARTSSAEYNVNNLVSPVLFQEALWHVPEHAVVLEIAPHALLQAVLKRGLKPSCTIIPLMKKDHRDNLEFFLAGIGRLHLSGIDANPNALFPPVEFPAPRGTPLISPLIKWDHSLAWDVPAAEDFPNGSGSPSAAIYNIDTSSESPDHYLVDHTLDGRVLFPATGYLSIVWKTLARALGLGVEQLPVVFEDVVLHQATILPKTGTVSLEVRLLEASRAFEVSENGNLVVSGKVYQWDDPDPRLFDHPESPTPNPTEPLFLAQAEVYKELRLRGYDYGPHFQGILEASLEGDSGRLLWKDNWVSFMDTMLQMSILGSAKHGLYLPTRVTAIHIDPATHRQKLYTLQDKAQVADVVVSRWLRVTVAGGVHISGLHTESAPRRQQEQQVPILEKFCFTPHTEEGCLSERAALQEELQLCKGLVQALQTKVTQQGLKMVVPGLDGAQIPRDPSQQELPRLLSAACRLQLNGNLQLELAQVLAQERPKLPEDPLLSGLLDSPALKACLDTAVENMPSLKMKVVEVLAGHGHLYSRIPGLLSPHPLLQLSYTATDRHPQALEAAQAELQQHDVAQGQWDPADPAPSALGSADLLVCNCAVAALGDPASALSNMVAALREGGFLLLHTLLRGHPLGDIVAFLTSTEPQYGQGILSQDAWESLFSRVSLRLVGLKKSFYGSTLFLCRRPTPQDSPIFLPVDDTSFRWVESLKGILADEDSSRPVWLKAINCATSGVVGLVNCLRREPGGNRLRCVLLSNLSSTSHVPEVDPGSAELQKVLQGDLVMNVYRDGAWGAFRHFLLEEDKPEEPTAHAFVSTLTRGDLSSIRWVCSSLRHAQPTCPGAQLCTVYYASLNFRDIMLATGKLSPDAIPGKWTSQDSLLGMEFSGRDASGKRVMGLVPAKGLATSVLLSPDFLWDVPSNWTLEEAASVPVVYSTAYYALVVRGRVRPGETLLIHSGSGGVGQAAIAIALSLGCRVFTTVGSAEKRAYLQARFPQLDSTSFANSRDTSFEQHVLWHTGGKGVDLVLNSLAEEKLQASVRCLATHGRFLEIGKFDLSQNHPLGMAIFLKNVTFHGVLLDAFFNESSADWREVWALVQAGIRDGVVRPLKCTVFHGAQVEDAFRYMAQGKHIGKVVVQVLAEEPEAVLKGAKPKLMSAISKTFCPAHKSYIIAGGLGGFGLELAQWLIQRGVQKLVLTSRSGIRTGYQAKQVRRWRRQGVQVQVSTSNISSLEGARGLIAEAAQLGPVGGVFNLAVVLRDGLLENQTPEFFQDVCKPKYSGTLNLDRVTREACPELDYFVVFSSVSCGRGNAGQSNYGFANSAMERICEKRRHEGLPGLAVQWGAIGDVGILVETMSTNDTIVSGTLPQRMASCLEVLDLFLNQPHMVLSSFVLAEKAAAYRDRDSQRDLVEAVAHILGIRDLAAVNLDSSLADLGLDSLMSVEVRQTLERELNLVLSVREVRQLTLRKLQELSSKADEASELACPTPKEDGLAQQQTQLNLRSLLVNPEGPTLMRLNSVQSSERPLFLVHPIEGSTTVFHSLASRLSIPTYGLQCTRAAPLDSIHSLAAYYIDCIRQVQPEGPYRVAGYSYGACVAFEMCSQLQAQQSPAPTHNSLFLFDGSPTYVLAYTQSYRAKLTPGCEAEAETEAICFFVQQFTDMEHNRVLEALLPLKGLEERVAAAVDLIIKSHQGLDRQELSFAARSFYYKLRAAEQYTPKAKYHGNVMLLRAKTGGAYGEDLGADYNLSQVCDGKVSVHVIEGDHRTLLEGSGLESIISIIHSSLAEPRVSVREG
# Chain of DNA dC->dU-editing enzyme APOBEC-3A (P31941 whole entry): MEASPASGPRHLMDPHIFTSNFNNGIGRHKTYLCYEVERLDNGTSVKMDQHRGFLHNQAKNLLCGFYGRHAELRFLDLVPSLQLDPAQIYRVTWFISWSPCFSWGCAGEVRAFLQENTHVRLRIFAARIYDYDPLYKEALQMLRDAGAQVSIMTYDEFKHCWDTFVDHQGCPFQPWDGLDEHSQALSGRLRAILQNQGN
# Chain of Luciferin 4-monooxygenase (P08659 whole entry): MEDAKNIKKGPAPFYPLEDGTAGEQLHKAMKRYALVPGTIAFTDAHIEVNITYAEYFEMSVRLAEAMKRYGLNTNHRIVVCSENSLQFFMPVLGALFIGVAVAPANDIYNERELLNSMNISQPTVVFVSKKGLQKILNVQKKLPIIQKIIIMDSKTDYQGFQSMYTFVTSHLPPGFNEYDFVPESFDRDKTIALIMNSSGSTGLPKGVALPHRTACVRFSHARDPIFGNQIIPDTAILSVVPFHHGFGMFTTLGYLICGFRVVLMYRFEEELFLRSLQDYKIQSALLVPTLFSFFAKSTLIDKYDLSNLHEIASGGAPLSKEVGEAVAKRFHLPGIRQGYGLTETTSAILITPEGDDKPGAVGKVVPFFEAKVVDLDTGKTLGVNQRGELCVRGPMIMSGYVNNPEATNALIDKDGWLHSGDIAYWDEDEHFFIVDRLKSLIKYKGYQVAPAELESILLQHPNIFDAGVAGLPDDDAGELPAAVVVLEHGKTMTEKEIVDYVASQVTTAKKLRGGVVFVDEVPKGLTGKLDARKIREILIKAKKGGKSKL
compound,measurement,setting,value
O=C(c1ccc2c3n(nc2c1)-c1ccccc1CO3)N1CCOCC1,EC50,BJ [1],4.57 µM (inconclusive)
same,EC50,BJ [2],3.76 µM (active)
same,EC50,[3],1.55 µM (active)
same,EC50,[4],10.8 µM (active)
same,EC50,BJ [5],17 µM (active)
same,EC50,[6],5.29 µM (active)
same,AC50,[7],17.7 µM (active)
same,AC50,[8],12.3 µM (active)
same,EC50,BJ [9],> 133 µM (inactive)
same,AC50,[10],12.6 µM (active)
O=C(COC(=O)CCN1C(=O)c2cccc([N+](=O)[O-])c2C1=O)NCc1ccccc1,IC50,Melanocortin receptor 4,> 64.6 µM (inactive)
same,IC50,[11],> 64.6 µM (inactive)
c1cnc2nc(SCc3cn4ccccc4n3)[nH]c2c1,IC50,[12],> 99 µM (inactive)
same,IC50,[13],> 99 µM (inactive)
CN1CCC(OC(=O)c2cc3cc(Cl)cc(Cl)c3oc2=O)CC1,IC50,Interleukin-8 [14],8.62 µM (active)
same,IC50,Interleukin-8 [15],3.45 µM (active)
Cn1c(SCC(=O)c2ccccc2)nnc1-c1sc2ccccc2c1Cl,IC50,[12],> 99 µM (inactive)
same,IC50,[13],> 99 µM (inactive)
O=C(COc1ccccc1)Nc1nnc(-c2ccccc2)o1,AC50,[16],93.8 µM (active)
COc1ccc(NC(=O)Nc2cccc3c2O[C@H](CN(C)C(=O)Nc2ccc(C(F)(F)F)cc2)[C@@H](C)CN([C@H](C)CO)C3=O)cc1,IC50,Melanocortin receptor 4,23.1 µM (inactive)
same,IC50,[11],> 64.6 µM (inactive)
same,IC50,Fatty acid synthase [17],11.6 µM (active)
same,IC50,Fatty acid synthase [18],7.98 µM (active)
CCCC1COC(Cn2cncn2)(c2ccc(Cl)cc2Cl)O1 (configuration not stated) [PROPICONAZOLE],EC50,[19],< 0.1 µM (active)
same,EC50,[20],> 60 µM (not active)
same,AC50,[21],< 0.195 µM (active)
same,AC50,[22],70.8 µM (inconclusive)
same,EC50,cells,0.041 µM (active)
Cc1c(N=Nc2ccc(N(C)C)cc2)c(=O)n(-c2ccccc2)n1C,EC50,[23],11.1 µM (active)
same,EC50,[24],6.8 µM (active)
same,EC50,H4,34.5 µM (active)
same,IC50,[25],73.1 µM (active)
same,IC50,[26],> 100 µM (inactive)
same,IC50,Prothrombin,42.8 µM (active)
same,IC50,[27],56.9 µM (active)
CCOC(=O)CNC(=O)[C@H](Cc1ccccc1)NC(=O)OCc1ccccc1 (Cbz-Phe-Gly-OEt),CC50,[28],58.5 µM (active)
same,CC50,[29],32.1 µM (active)
CCc1ccc(O)c(/N=C/c2cccc(C)c2O)c1,IC50,[25],29.4 µM (active)
same,IC50,[26],> 100 µM (inactive)
same,IC50,Prothrombin,11.8 µM (active)
same,CC50,[30],100 µM (active)
same,IC50,[27],45.5 µM (active)
Cn1cc(C(c2ccccn2)c2cn(C)c3ccccc23)c2ccccc21,EC50,[31],55.6 µM (active)
same,EC50,[32],0.157 µM (active)
same,EC50,[33],> 180 µM (inactive)
same,EC50,[34],7.76 µM (active)
same,EC50,[35],> 150 µM (inactive)
